Tests used:
Assay type in all cases: in vivo
Kochia (Kochia scoparia) [1] = test: Test A preemergence; details: Bassia scoparia, pre-emergence, 240 h, 0 to 100 scale where 0 is no effect and 100 is complete control, read-out: Kochia plant response rating; for pest or weed control at 31 g/ha: 31 g ai/ha, Preemergence; for pest or weed control at 125 g/ha: 125 g ai/ha, preemergence, approx. 10 d
Procedure, shortened: (§1)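 Visual injury scores from 0, no effect, to 100, complete control, were assigned versus untreated controls roughly 10 d after treatment in the greenhouse. Test chemicals, formulated with surfactant in a non-phytotoxic solvent, were applied to planted seeds as a preemergence soil spray or postemergence to one- to two-leaf plants 2 to 10 cm tall, in loam–sand soil.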

[2] = system: barnyardgrass (Echinochloa crus-galli); test: Test A preemergence; details: Echinochloa crus-galli, pre-emergence, 240 h, 0 to 100 scale where 0 is no effect and 100 is complete control, read-out: Barnyardgrass plant response rating; for pest or weed control at 31 g/ha: 31 g ai/ha, Preemergence; for pest or weed control at 125 g/ha: 125 g ai/ha, preemergence, approx. 10 d
Procedure, shortened: as §1

[3] = system: giant foxtail (Setaria faberii); test: Test A preemergence; details: Setaria faberi, pre-emergence, 240 h, 0 to 100 scale where 0 is no effect and 100 is complete control, read-out: Foxtail, Giant plant response rating; for pest or weed control at 31 g/ha: 31 g ai/ha, Preemergence; for pest or weed control at 125 g/ha: 125 g ai/ha, preemergence, approx. 10 d
Procedure, shortened: as §1

[4] = system: pigweed (Amaranthus retroflexus); test: Test A preemergence; details: Amaranthus retroflexus, pre-emergence, 240 h, 0 to 100 scale where 0 is no effect and 100 is complete control, read-out: Pigweed plant response rating; for pest or weed control at 31 g/ha: 31 g ai/ha, Preemergence; for pest or weed control at 125 g/ha: 125 g ai/ha, preemergence, approx. 10 d
[5] = system: ragweed (common ragweed, Ambrosia elatior); test: Test A preemergence; details: Ambrosia artemisiifolia, pre-emergence, 240 h, 0 to 100 scale where 0 is no effect and 100 is complete control, read-out: Ragweed plant response rating; for pest or weed control at 31 g/ha: 31 g ai/ha, Preemergence; for pest or weed control at 125 g/ha: 125 g ai/ha, preemergence, approx. 10 d
Procedure, shortened: as §1

[6] = system: ryegrass, Italian (Italian ryegrass, Lolium multiflorum); test: Test A preemergence; details: Lolium multiflorum, pre-emergence, 240 h, 0 to 100 scale where 0 is no effect and 100 is complete control, read-out: Ryegrass, Italian plant response rating; for pest or weed control at 31 g/ha: 31 g ai/ha, Preemergence; for pest or weed control at 125 g/ha: 125 g ai/ha, preemergence, approx. 10 d
Procedure, shortened: as §1

[7] = system: Galium (catchweed bedstraw, Galium aparine); test: Test A postemergence; details: Galium, post-emergence, 240 h; for pest or weed control at 125 g/ha: 125 g ai/ha, postemergence, visual injury vs untreated controls after approx. 10 d, 0 = no effect, 100 = complete control, read-out: Galium plant response rating (0 to 100 scale); for pest or weed control at 31 g/ha: Postemergence, 31 g ai/ha, visual injury after approx. 10 d, 0 to 100 scale, 0 no effect, 100 complete control, read-out: Plant response rating, Galium
Procedure, shortened: as §1

Kochia (Kochia scoparia) [8] = test: Test A postemergence; details: Bassia scoparia, post-emergence, 240 h; for pest or weed control at 125 g/ha: 125 g ai/ha, postemergence, visual injury vs untreated controls after approx. 10 d, 0 = no effect, 100 = complete control, read-out: Kochia plant response rating (0 to 100 scale); for pest or weed control at 31 g/ha: Postemergence, 31 g ai/ha, visual injury after approx. 10 d, 0 to 100 scale, 0 no effect, 100 complete control, read-out: Plant response rating, Kochia
Procedure, shortened: as §1

[9] = system: barnyardgrass (Echinochloa crus-galli); test: Test A postemergence; details: Echinochloa crus-galli, post-emergence, 240 h; for pest or weed control at 125 g/ha: 125 g ai/ha, postemergence, visual injury vs untreated controls after approx. 10 d, 0 = no effect, 100 = complete control, read-out: Barnyardgrass plant response rating (0 to 100 scale); for pest or weed control at 31 g/ha: Postemergence, 31 g ai/ha, visual injury after approx. 10 d, 0 to 100 scale, 0 no effect, 100 complete control, read-out: Plant response rating, Barnyardgrass
Procedure, shortened: as §1

[10] = system: blackgrass (Alopecurus myosuroides); test: Test A postemergence; details: Alopecurus myosuroides, post-emergence, 240 h; for pest or weed control at 125 g/ha: 125 g ai/ha, postemergence, visual injury vs untreated controls after approx. 10 d, 0 = no effect, 100 = complete control, read-out: Blackgrass plant response rating (0 to 100 scale); for pest or weed control at 31 g/ha: Postemergence, 31 g ai/ha, visual injury after approx. 10 d, 0 to 100 scale, 0 no effect, 100 complete control, read-out: Plant response rating, Blackgrass
Procedure, shortened: as §1

corn (Zea mays) = test: Test A postemergence; details: Zea mays, post-emergence, 240 h; for plant injury at 125 g/ha: 125 g ai/ha, postemergence, visual injury vs untreated controls after approx. 10 d, 0 = no effect, 100 = complete control, read-out: Corn plant response rating (0 to 100 scale); for Corn plant response rating (crop injury, 0 = no effect, 100 = complete kill) at 31 g/ha: Postemergence, 31 g ai/ha, visual injury after approx. 10 d, 0 to 100 scale, 100 complete control
Procedure, shortened: as §1

[11] = system: giant foxtail (Setaria faberii); test: Test A postemergence; details: Setaria faberi, post-emergence, 240 h; for pest or weed control at 125 g/ha: 125 g ai/ha, postemergence, visual injury vs untreated controls after approx. 10 d, 0 = no effect, 100 = complete control, read-out: Foxtail, Giant plant response rating (0 to 100 scale); for pest or weed control at 31 g/ha: Postemergence, 31 g ai/ha, visual injury after approx. 10 d, 0 to 100 scale, 0 no effect, 100 complete control, read-out: Plant response rating, Foxtail, Giant
Procedure, shortened: as §1

[12] = system: pigweed (Amaranthus retroflexus); test: Test A postemergence; details: Amaranthus retroflexus, post-emergence, 240 h; for pest or weed control at 125 g/ha: 125 g ai/ha, postemergence, visual injury vs untreated controls after approx. 10 d, 0 = no effect, 100 = complete control, read-out: Pigweed plant response rating (0 to 100 scale); for pest or weed control at 31 g/ha: Postemergence, 31 g ai/ha, visual injury after approx. 10 d, 0 to 100 scale, 0 no effect, 100 complete control, read-out: Plant response rating, Pigweed
Procedure, shortened: as §1

[13] = system: ragweed (common ragweed, Ambrosia elatior); test: Test A postemergence; details: Ambrosia artemisiifolia, post-emergence, 240 h; for pest or weed control at 125 g/ha: 125 g ai/ha, postemergence, visual injury vs untreated controls after approx. 10 d, 0 = no effect, 100 = complete control, read-out: Ragweed plant response rating (0 to 100 scale); for pest or weed control at 31 g/ha: Postemergence, 31 g ai/ha, visual injury after approx. 10 d, 0 to 100 scale, 0 no effect, 100 complete control, read-out: Plant response rating, Ragweed
Procedure, shortened: as §1

[14] = system: ryegrass, Italian (Italian ryegrass, Lolium multiflorum); test: Test A postemergence; details: Lolium multiflorum, post-emergence, 240 h; for pest or weed control at 125 g/ha: 125 g ai/ha, postemergence, visual injury vs untreated controls after approx. 10 d, 0 = no effect, 100 = complete control, read-out: Ryegrass, Italian plant response rating (0 to 100 scale); for pest or weed control at 31 g/ha: Postemergence, 31 g ai/ha, visual injury after approx. 10 d, 0 to 100 scale, 0 no effect, 100 complete control, read-out: Plant response rating, Ryegrass, Italian
Procedure, shortened: as §1

[15] = system: wheat (Triticum aestivum); test: Test A postemergence; details: Triticum aestivum, post-emergence, 240 h; for plant injury at 125 g/ha: 125 g ai/ha, postemergence, visual injury vs untreated controls after approx. 10 d, 0 = no effect, 100 = complete control, read-out: Wheat plant response rating (0 to 100 scale); for plant injury at 31 g/ha: Postemergence, 31 g ai/ha, visual injury after approx. 10 d, 0 to 100 scale, 0 no effect, 100 complete control, read-out: Plant response rating, Wheat
Procedure, shortened: as §1

[16] = system: barnyardgrass (Echinochloa crus-galli); test: Test B flooded paddy test; details: Echinochloa crus-galli, 250 g ai/ha, Flood; 0 to 100 scale where 0 is no effect and 100 is complete control; read-out: Barnyardgrass plant response rating
Procedure, shortened: (§2)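 Compound goes directly into floodwater once pots are flooded 3 cm above soil, targeting plants at two leaves; the water depth is then held for the test duration. Plants sit 13–15 d in a greenhouse and are rated visually, 100 denoting complete control.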

[17] = system: ducksalad (Heteranthera limosa); test: Test B flooded paddy test; details: Heteranthera limosa, 250 g ai/ha, Flood; 0 to 100 scale where 0 is no effect and 100 is complete control; read-out: Ducksalad plant response rating
Procedure, shortened: as §2

rice (Oryra sativa) = test: Test B flooded paddy test; details: Oryza sativa, 250 g ai/ha, Flood; 0 to 100 scale where 0 is no effect and 100 is complete control; read-out: Rice plant response rating
Procedure, shortened: as §2

[18] = system: sedge, umbrella (small-flower umbrella sedge, Cyperus difformis); test: Test B flooded paddy test; details: Cyperus difformis, 250 g ai/ha, Flood; 0 to 100 scale where 0 is no effect and 100 is complete control; read-out: Sedge, Umbrella plant response rating
Procedure, shortened: as §2

`O=C1NC[C@H](c2csc3c2CCCC3)[C@H]1C(=O)Nc1cccc(F)c1F` [Compound 1163] was tested, and the pest or weed control at 31 g/ha (Kochia (Kochia scoparia) [1]) was 0%, the pest or weed control at 125 g/ha (Kochia (Kochia scoparia) [1]) was 20% and the pest or weed control at 31 g/ha [2] was 70%. The pest or weed control at 125 g/ha [2] was 90%, the pest or weed control at 31 g/ha [3] was 10% and the pest or weed control at 125 g/ha [3] was 60%. It also gave a pest or weed control at 31 g/ha [4] of 0%, a pest or weed control at 125 g/ha [4] of 0% and a pest or weed control at 31 g/ha [5] of 0%. The pest or weed control at 125 g/ha [5] was 0%, the pest or weed control at 31 g/ha [6] was 0% and the pest or weed control at 125 g/ha [6] was 0%. For the same compound, the pest or weed control at 125 g/ha [7] was 20%, the pest or weed control at 31 g/ha [7] was 0% and the pest or weed control at 125 g/ha (Kochia (Kochia scoparia) [8]) was 0%. It also gave a pest or weed control at 31 g/ha (Kochia (Kochia scoparia) [8]) of 0%, a pest or weed control at 125 g/ha [9] of 60% and a pest or weed control at 31 g/ha [9] of 30%. The pest or weed control at 125 g/ha [10] was 20%, the pest or weed control at 31 g/ha [10] was 0% and the plant injury at 125 g/ha (corn (Zea mays)) was 0%. The Corn plant response rating (crop injury, 0 = no effect, 100 = complete kill) at 31 g/ha (corn (Zea mays)) was 0%, the pest or weed control at 125 g/ha [11] was 0% and the pest or weed control at 31 g/ha [11] was 0%. For the same compound, the pest or weed control at 125 g/ha [12] was 0%, the pest or weed control at 31 g/ha [12] was 0% and the pest or weed control at 125 g/ha [13] was 0%. The pest or weed control at 31 g/ha [13] was 0%, the pest or weed control at 125 g/ha [14] was 0% and the pest or weed control at 31 g/ha [14] was 0%. The plant injury at 125 g/ha [15] was 0%, the plant injury at 31 g/ha [15] was 0% and the pest or weed control at 250 g/ha [16] was 30%. The pest or weed control at 250 g/ha [17] was 95%, the pest or weed control at 250 g/ha (rice (Oryra sativa)) was 0% and the pest or weed control at 250 g/ha [18] was 0%.
Work on `O=C1NC[C@H](c2csc3c2CCC3)[C@H]1C(=O)Nc1cccc(F)c1F` [Compound 1164] yielded a pest or weed control at 31 g/ha (Kochia (Kochia scoparia) [1]) of 0%, a pest or weed control at 125 g/ha (Kochia (Kochia scoparia) [1]) of 20% and a pest or weed control at 31 g/ha [2] of 60%. The pest or weed control at 125 g/ha [2] was 80%, the pest or weed control at 31 g/ha [3] was 30% and the pest or weed control at 125 g/ha [3] was 30%. The pest or weed control at 31 g/ha [4] was 0%, the pest or weed control at 125 g/ha [4] was 0% and the pest or weed control at 31 g/ha [5] was 0%. The pest or weed control at 125 g/ha [5] was 0%, the pest or weed control at 31 g/ha [6] was 0% and the pest or weed control at 125 g/ha [6] was 0%. The pest or weed control at 125 g/ha [7] was 30%, the pest or weed control at 31 g/ha [7] was 0% and the pest or weed control at 125 g/ha (Kochia (Kochia scoparia) [8]) was 0%. The pest or weed control at 31 g/ha (Kochia (Kochia scoparia) [8]) was 0%, the pest or weed control at 125 g/ha [9] was 80% and the pest or weed control at 31 g/ha [9] was 30%. It also gave a pest or weed control at 125 g/ha [10] of 0%, a pest or weed control at 31 g/ha [10] of 0% and a plant injury at 125 g/ha (corn (Zea mays)) of 0%. For the same compound, the Corn plant response rating (crop injury, 0 = no effect, 100 = complete kill) at 31 g/ha (corn (Zea mays)) was 0%, the pest or weed control at 125 g/ha [11] was 0% and the pest or weed control at 31 g/ha [11] was 0%. It also gave a pest or weed control at 125 g/ha [12] of 0%, a pest or weed control at 31 g/ha [12] of 0% and a pest or weed control at 125 g/ha [13] of 0%. The pest or weed control at 31 g/ha [13] was 0%, the pest or weed control at 125 g/ha [14] was 0% and the pest or weed control at 31 g/ha [14] was 0%. The plant injury at 125 g/ha [15] was 0%, the plant injury at 31 g/ha [15] was 0% and the pest or weed control at 250 g/ha [16] was 40%. The pest or weed control at 250 g/ha [17] was 95%, the pest or weed control at 250 g/ha (rice (Oryra sativa)) was 0% and the pest or weed control at 250 g/ha [18] was 0%.
